Earlier results, collected in patent publication US7351715B2, “Unit dosage forms for the treatment of herpes simplex” (ChronoRx, LLC, priority 1998, dated 2008).

How the values were obtained:
[1] = rabbits and rats
HSV-1 [2] = settings: in vitro, supplementation with exogenous GSH
HSV-1 [3] = settings: in vitro cell culture
[4] = test system: herpes simplex virus infections
HSV = settings: topical application, guinea pigs

Compound: O=c1[nH]c(=O)n([C@H]2C[C@H](O)[C@@H](CO)O2)cc1I [idoxuridine, 2′-Deoxy-5-idouridine]
- fetal malformations [1]: implicated in fetal malformations in rabbits and rats

Compound: N[C@@H](CCC(=O)N[C@@H](CS)C(=O)NCC(=O)O)C(=O)O [GSH, Glutathione]
- inhibition of the replication of HSV-1 (HSV-1 [2]): over 99%

Compound: O=c1c(O)c(-c2ccc(O)c(O)c2)oc2cc(O)cc(O)c12 [quercetin, 3,3′,4′,5,7-pentahydroxyflavone]
- intracellular viral replication (HSV-1 [3]): reduced intracellular viral replication
- reduction of infectivity of viruses including HSV-1 (HSV-1 [3]): concentration-dependent reduction of infectivity

Compound: O=S(=O)([O-])[O-].[Zn+2] [Zinc sulfate]
- inactivation of free herpes simplex virus (herpes simplex virus): inactivates free herpes simplex virus

Compound: Cl.NCCCC[C@H](N)C(=O)O [L-lysine, L-lysine monohydrochloride]
- effect on rate of healing or appearance of lesions ([4]; at least one study): no effect on the rate of healing or the appearance of lesions
- reduction of occurrence, severity and healing time ([4]; oral, study involving 52 subjects): effective agent for the reduction of occurrence, severity and healing time
- herpes simplex patients with subjective improvement ([4]; patients using L-lysine, one study): 88%
- protection of skin from HSV inoculation (HSV): protected the skin from HSV inoculation
